Reference: patent US20250171426A1, “PYRIMIDINEDIONE-BASED COMPOUNDS AS AXL, C-MET, AND MER INHIBITORS AND METHODS OF USE THEREOF” (CMG Pharmaceutical Co., Ltd., priority 2022, published 2025)

Legend:
Type in all cases: biochemical
Conditions in all cases: 10 μM ATP, 60 min, ADP-GLO luminescence
AXL = target: T1, AXL (Homo sapiens, UniProt P30530); assay: Enzymatic assay (ADP-Glo kinase reaction), AXL
T1 sequence (P30530 26-894): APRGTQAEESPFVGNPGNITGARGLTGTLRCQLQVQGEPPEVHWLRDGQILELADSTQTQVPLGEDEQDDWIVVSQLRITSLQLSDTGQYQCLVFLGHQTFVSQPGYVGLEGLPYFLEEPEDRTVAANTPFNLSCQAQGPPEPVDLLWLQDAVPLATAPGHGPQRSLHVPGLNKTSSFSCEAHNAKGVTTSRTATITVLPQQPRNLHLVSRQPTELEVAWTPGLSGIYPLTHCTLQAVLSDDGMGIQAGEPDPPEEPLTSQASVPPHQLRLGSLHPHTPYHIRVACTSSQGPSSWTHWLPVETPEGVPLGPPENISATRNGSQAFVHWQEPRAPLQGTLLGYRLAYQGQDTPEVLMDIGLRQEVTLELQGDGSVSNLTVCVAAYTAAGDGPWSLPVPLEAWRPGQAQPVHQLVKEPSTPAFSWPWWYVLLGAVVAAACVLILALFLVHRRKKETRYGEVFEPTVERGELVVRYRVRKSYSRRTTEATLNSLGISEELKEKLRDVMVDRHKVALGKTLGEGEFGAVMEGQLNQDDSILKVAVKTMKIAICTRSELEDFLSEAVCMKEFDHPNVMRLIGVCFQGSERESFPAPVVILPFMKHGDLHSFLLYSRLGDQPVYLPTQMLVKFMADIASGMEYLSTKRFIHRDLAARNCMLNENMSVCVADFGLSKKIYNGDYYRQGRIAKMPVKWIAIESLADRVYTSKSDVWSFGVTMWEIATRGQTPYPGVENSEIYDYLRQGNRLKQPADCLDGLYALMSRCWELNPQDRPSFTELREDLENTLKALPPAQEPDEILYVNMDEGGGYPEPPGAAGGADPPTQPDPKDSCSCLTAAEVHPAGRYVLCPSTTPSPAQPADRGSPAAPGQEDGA
Experimental: (§1) All the kinase reactions were performed in 5 μL using tyrosine kinase buffer with 0.2 μg/μL poly (Glu4, Tyr1) substrate, 10 μM ATP, serial dilution of the inhibitor, and incubated at room temperature for 60 min. After the indicated incubation times, 5 μL ADP-GLO™ reagent (Promega, Madison, WI) was added to the reactions and the plate was incubated at room temperature for 40 min. […] All 384-well assay plates were read using a GLOMAX™ Discover Microplate Luminometer from Promega (Madison, WI). To plot, analyze the data and calculate all kinase reaction biochemical values, both Microsoft Excel and Prism from GraphPad 7 Software (La Jolla, CA) were used.

MER = target: T2, MER (Homo sapiens, UniProt Q12866); assay: Enzymatic assay (ADP-Glo kinase reaction), MER
T2 sequence (Q12866 21-999): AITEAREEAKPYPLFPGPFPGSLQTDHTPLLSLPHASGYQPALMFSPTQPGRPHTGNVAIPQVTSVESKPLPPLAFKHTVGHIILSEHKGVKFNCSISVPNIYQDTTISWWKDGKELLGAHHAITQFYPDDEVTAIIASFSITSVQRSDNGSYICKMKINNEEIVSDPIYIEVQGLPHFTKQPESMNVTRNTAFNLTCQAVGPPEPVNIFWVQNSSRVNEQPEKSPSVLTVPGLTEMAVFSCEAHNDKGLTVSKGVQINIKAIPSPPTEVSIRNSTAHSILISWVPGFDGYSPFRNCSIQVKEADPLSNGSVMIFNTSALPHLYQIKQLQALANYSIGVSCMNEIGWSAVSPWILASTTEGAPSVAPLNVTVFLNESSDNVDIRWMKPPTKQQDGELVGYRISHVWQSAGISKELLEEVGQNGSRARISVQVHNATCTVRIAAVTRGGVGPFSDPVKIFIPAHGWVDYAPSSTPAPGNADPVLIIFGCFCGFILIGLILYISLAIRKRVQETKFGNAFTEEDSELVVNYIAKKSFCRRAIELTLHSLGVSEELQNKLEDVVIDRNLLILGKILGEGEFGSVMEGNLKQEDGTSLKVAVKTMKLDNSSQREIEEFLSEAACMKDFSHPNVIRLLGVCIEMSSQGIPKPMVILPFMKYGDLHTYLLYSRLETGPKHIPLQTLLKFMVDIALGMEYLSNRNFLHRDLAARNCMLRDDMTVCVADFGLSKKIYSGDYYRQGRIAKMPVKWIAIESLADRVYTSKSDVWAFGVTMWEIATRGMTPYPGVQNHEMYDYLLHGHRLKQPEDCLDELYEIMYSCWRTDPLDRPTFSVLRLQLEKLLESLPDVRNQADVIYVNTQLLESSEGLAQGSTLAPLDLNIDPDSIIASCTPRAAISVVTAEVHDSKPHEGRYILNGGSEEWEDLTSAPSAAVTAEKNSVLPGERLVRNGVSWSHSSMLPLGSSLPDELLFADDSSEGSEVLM
Experimental: (§2) All the kinase reactions were performed in 5 μL using tyrosine kinase buffer with 0.2 μg/μL poly (Glu4, Tyr1) substrate, 10 μM ATP, serial dilution of the inhibitor, and incubated at room temperature for 60 min. After the indicated incubation times, 5 μL ADP-GLO™ reagent (Promega, Madison, WI) was added to the reactions and the plate was incubated at room temperature for 40 min. Then, 10 μL of kinase detection reagent was added and after an incubation time of 40 min, luminescence was recorded and IC50 values were determined (Table 1). All 384-well assay plates were read using a GLOMAX™ Discover Microplate Luminometer from Promega (Madison, WI). To plot, analyze the data and calculate all kinase reaction biochemical values, both Microsoft Excel and Prism from GraphPad 7 Software (La Jolla, CA) were used.
as §2, with “3).” for “1).”

c-MET = c-MET (Homo sapiens, UniProt P08581); assay: Enzymatic assay (ADP-Glo kinase reaction), c-MET
Chain of c-MET (P08581 25-1390): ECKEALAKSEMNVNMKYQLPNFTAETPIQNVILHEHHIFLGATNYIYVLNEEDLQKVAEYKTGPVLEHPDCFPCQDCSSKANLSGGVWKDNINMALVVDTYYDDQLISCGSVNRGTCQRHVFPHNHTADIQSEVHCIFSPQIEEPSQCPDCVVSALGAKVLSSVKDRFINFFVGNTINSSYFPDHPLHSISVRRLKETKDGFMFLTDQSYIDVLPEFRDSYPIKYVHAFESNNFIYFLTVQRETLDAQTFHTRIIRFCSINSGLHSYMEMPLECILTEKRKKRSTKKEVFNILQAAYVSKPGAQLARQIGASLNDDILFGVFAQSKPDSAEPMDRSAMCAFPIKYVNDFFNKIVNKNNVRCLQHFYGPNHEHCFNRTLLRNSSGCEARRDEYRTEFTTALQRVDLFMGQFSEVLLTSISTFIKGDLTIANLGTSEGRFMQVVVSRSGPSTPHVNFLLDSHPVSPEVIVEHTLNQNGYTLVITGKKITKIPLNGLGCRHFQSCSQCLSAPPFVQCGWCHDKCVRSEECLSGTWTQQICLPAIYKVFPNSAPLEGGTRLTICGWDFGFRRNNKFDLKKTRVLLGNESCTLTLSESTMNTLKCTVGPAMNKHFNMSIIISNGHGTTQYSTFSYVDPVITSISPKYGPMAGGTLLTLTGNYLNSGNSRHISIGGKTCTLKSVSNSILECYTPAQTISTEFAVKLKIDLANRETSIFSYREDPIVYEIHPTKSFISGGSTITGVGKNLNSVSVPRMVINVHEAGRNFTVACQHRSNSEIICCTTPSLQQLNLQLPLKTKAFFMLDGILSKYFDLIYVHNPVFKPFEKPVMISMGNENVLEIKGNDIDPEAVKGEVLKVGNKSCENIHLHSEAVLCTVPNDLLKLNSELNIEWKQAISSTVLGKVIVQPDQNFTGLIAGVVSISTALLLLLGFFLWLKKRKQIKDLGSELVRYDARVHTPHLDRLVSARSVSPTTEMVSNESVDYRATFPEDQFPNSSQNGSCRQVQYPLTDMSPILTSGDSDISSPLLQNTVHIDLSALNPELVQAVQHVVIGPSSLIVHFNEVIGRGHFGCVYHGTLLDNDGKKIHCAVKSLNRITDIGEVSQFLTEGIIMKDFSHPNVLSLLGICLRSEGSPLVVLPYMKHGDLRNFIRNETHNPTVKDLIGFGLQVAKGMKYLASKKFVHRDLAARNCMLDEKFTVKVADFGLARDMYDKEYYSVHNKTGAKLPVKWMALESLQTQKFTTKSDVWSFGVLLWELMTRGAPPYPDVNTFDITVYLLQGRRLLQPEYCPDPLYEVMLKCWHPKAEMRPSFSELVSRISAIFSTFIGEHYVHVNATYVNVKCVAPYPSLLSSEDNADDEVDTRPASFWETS
Experimental: as §1

IC50 (AXL) [nM] | IC50 (MER) [nM] | IC50 (c-MET) [nM] | SMILES
< 100 | < 10 | < 100 | CC(C)(C#Cc1c(Oc2ccc(NC(=O)c3cn(C4CCOCC4)c(=O)n(-c4ccc(F)cc4)c3=O)cc2F)ccnc1N)N1CCNCC1 [Example 58, N-(4-(2-amino-3-(3-methyl-3-(piperazin-1-yl)but-1-ynyl)pyridin-4-yloxy)-3-fluorophenyl)-3-(4-fluorophenyl)-2,4-dioxo-1-(tetrahydro-2H-pyran-4-yl)-1,2,3,4-tetrahydropyrimidine-5-carboxamide]
< 100 | < 10 | < 10 | CN(C)C(=O)Cn1cc(C(=O)Nc2ccc(Oc3ccnc(N)c3C#CCC3CCNCC3)c(F)c2)c(=O)n(-c2ccc(F)cc2)c1=O [Example 38, N-(4-((2-amino-3-(3-(piperidin-4-yl)prop-1-yn-1-yl)pyridin-4-yl)oxy)-3-fluorophenyl)-1-(2-(dimethylamino)-2-oxoethyl)-3-(4-fluorophenyl)-2,4-dioxo-1,2,3,4-tetrahydropyrimidine-5-carboxamide]
< 10 | < 10 | < 100 | CN1CCC(CC#Cc2c(Oc3ccc(NC(=O)c4cn(C5CCOCC5)c(=O)n(-c5ccc(F)cc5)c4=O)cc3F)ccnc2N)CC1 [Example 60, N-(4-(2-amino-3-(3-(1-methylpiperidin-4-yl)prop-1-ynyl)pyridin-4-yloxy)-3-fluorophenyl)-3-(4-fluorophenyl)-2,4-dioxo-1-(tetrahydro-2H-pyran-4-yl)-1,2,3,4-tetrahydropyrimidine-5-carboxamide]

The next lines start with the molecule.

SMILES | IC50 (AXL) [nM] | IC50 (MER) [nM] | IC50 (c-MET) [nM]
CCCn1cc(C#Cc2c(Oc3ccc(NC(=O)c4cn(C(C)C)c(=O)n(-c5ccc(F)cc5)c4=O)cc3F)ccnc2N)cn1 [Example 13, N-(4-(2-amino-3-((1-propyl-1H-pyrazol-4-yl)ethynyl)pyridin-4-yloxy)-3-fluorophenyl)-3-(4-fluorophenyl)-1-isopropyl-2,4-dioxo-1,2,3,4-tetrahydropyrimidine-5-carboxamide] | < 10 | < 10 | < 1000
CC(C)n1cc(C(=O)Nc2ccc(Oc3ccnc(N)c3C#CC(C)(C)N3CCOCC3)c(F)c2)c(=O)n(-c2ccc(F)cc2)c1=O [Example 25, N-(4-(2-amino-3-(3-methyl-3-morpholinobut-1-ynyl)pyridin-4-yloxy)-3-fluorophenyl)-3-(4-fluorophenyl)-1-isopropyl-2,4-dioxo-1,2,3,4-tetrahydropyrimidine-5-carboxamide] | < 10 | < 10 | < 10
CC(C)N1CCC(CC#Cc2c(Oc3ccc(NC(=O)c4cn(C(C)C)c(=O)n(-c5ccc(F)cc5)c4=O)cc3F)ccnc2N)CC1 [Example 29, N-(4-(2-amino-3-(3-(1-isopropylpiperidin-4-yl)prop-1-ynyl)pyridin-4-yloxy)-3-fluorophenyl)-3-(4-fluorophenyl)-1-isopropyl-2,4-dioxo-1,2,3,4-tetrahydropyrimidine-5-carboxamide] | < 10 | < 10 | < 10
COCCN1CCC(CC#Cc2c(Oc3ccc(NC(=O)c4cn(C(C)C)c(=O)n(-c5ccc(F)cc5)c4=O)cc3F)ccnc2N)CC1 [Example 28, N-(4-(2-amino-3-(3-(1-(2-methoxyethyl)piperidin-4-yl)prop-1-ynyl)pyridin-4-yloxy)-3-fluorophenyl)-3-(4-fluorophenyl)-1-isopropyl-2,4-dioxo-1,2,3,4-tetrahydropyrimidine-5-carboxamide] | < 10 | < 10 | < 10
CN1CCN(C(C)(C)C#Cc2c(Oc3ccc(NC(=O)c4cn(CC(=O)N(C)C)c(=O)n(-c5ccc(F)cc5)c4=O)cc3F)ccnc2N)CC1 [Example 36, N-(4-((2-amino-3-(3-methyl-3-(4-methylpiperazin-1-yl)but-1-yn-1-yl)pyridin-4-yl)oxy)-3-fluorophenyl)-1-(2-(dimethylamino)-2-oxoethyl)-3-(4-fluorophenyl)-2,4-dioxo-1,2,3,4-tetrahydropyrimidine-5-carboxamide] | < 10000 | < 1000 | < 10000
